Test results as given in patent US8053197B2, “Methods for detecting and treating autoimmune disorders” (Oregon Health & Science University, priority 2004, dated 2011).

System: Treg compartment
Test: Treg compartment (CD25, Foxp3 mRNA, FoxP3 protein) in naïve mice treated with E2 for 14 days
Assay type: in vivo, C57BL/6 mice
Procedure: Quadrant statistics noted are percent of live gate.
FIG. 5 is a graph illustrating real-time PCR analysis of Foxp3 mRNA in CD4+ cells from FIG. 4. Data are presented as Foxp3 relative to housekeeping gene L32. Error bars are standard deviation of triplicate samples.
Cells were pooled from 8-10 mice before sorting.
For E2 therapy, a 3 mm pellet containing 2.5 mg or 15 mg (as indicated) 17β-estradiol (Innovative Research of America, Sarasota, Fla.) was implanted s.c. (dorsally) 7 days prior to immunization (EAE) or 14 days prior to analysis of naïve mice. These pellets are designed to release their contents at a constant rate over 60 days. Control animals were implanted with pellets containing saline. Serum levels of E2 were monitored by RIA.
Single-cell suspensions were prepared from spleens and RBCs lysed. Non-immunized mice receiving E2 pellets were sacrificed 14 days after implantation, while immunized mice were sacrificed at the peak of EAE disease severity, approximately 17 days after induction. […]
For real-time RT-PCR analysis, total RNA was prepared using the Total RNeasy kit (Qiagen, Germantown, Md.) and cDNA was prepared using random hexamer primers (Invitrogen, Grand Island, N.Y.). Foxp3 message expression was quantified using the ABI 7000 Real-Time PCR System (Applied Biosystems, Foster City, Calif.). Amplification was performed in a total volume of 25 μl for 40 cycles and products were detected using SYBR Green I dye (Molecular Probes, Eugene, Oreg.). Samples were run in triplicate and relative expression level was determined by normalization to L32 with results presented as relative expression (RE) units. […] For analysis of FoxP3 protein, cells were washed in PBS then lysed and sonicated in lysis buffer {25 mM Tris pH 8.5, 2% lithium dodecyl sulfate, 1 mM EDTA, 10 mM sodium fluoride, 1 mM sodium orthovanadate, and 1× Complete protease inhibitors (Roche Diagnostics, Mannheim, Germany)} and quantified by BCA (Pierce, Rockford, Ill.). […] FoxP3 was detected with rabbit-anti-FoxP3 antiserum and standard chemiluminescence. […]

Compound: C[C@]12CC[C@@H]3c4ccc(O)cc4CC[C@H]3[C@@H]1CC[C@@H]2O [E2, 17β-estradiol]
- FoxP3 protein: increase
- Foxp3 mRNA in CD4+ cells: increase
- increase in the fraction of CD25+ cells among all CD4+ cells versus untreated mice: 43%
